Results from patent US10526319B2, “Halogenated quinazolin-THF-amines as PDE1 inhibitors” (H. Lundbeck A/S, priority 2014, dated 2020).

Assays:
Type in all cases: biochemical
Details in all cases: 15 nM tritium labelled cAMP, 1 h at room temperature
PDE1B = PDE1B (Homo sapiens, UniProt Q01064); assay: PDE1 inhibition assay (SPA, tritium labelled cAMP), PDE1B
Experimental: (§1) PDE1A, PDE1B and PDE1C assays were performed as follows: the assays was performed in 60 μL samples containing a fixed amount of the PDE1 enzym1 (sufficient to convert 20-25% of the cyclic nucleotide substrate), a buffer (50 mM HEPES pH 7.6; 10 mM MgCl2; 0.02% Tween20), 0.1 mg/ml BSA, 15 nM tritium labelled cAMP and varying amounts of inhibitors. Reactions were initiated by addition of the cyclic nucleotide substrate, and reactions were allowed to proceed for 1 h at room temperature before being terminated through mixing with 20 μL (0.2 mg) yttrium silicate SPA beads (PerkinElmer). The beads were allowed to settle for 1 h in the dark before the plates were counted in a Wallac 1450 Microbeta counter. The measured signals were converted to activity relative to an uninhibited control (100%) and IC50 values were calculated using XlFit (model 205, IDBS).

PDE1A = PDE1A (Homo sapiens, UniProt P54750); assay: PDE1 inhibition assay (SPA, tritium labelled cAMP), PDE1A
Experimental: as §1

PDE1C = PDE1C (Homo sapiens, UniProt Q14123); assay: PDE1 inhibition assay (SPA, tritium labelled cAMP), PDE1C
Experimental: as §1

PDE1B, sequence (Q01064 whole entry): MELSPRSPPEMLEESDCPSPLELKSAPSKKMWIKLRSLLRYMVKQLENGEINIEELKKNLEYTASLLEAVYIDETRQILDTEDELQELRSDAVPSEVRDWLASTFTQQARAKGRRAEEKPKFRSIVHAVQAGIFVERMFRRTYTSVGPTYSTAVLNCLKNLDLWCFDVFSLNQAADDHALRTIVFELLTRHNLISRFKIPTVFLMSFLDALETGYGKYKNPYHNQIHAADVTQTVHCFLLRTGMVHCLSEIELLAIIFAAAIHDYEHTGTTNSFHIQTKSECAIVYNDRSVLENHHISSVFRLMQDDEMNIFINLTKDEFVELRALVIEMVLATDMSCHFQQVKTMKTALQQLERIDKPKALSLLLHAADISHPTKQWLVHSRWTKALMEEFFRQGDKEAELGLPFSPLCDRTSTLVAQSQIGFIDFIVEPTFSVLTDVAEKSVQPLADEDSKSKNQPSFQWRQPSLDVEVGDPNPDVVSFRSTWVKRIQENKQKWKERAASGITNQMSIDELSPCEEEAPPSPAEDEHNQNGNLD
PDE1C, sequence (Q14123 whole entry): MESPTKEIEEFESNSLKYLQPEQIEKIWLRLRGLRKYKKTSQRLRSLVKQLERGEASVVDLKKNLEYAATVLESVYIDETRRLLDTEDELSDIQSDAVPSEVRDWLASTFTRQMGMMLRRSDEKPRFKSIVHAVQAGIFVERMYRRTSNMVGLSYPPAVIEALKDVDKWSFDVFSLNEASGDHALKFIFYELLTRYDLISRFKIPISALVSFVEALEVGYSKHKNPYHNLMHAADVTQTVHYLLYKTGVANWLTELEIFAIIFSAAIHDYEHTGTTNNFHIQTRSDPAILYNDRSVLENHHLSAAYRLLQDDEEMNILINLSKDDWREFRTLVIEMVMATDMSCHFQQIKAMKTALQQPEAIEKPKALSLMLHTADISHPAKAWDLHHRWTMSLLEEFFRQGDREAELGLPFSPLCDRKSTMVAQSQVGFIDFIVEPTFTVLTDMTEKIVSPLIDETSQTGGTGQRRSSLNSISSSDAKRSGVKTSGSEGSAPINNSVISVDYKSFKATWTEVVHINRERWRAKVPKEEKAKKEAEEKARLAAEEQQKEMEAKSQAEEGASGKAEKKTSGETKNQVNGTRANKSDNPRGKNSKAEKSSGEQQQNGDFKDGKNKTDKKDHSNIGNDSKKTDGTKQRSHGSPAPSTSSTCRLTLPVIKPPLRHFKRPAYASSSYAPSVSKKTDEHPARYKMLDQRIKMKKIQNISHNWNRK
PDE1A, sequence (P54750 whole entry): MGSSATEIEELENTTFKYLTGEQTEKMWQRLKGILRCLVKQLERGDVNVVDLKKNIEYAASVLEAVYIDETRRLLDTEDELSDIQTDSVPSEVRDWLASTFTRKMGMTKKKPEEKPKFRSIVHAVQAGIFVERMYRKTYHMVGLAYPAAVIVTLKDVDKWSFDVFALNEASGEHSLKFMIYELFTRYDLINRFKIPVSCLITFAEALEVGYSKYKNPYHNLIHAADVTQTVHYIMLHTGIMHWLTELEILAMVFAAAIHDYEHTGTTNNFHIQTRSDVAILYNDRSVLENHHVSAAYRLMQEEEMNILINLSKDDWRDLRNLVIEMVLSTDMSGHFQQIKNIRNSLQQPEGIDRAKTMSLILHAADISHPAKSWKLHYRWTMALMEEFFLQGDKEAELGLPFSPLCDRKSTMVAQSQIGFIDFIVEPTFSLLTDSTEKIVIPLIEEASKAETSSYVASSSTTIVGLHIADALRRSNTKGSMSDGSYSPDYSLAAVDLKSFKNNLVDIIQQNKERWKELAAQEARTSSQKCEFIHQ

Compound | IC50 (PDE1B) [nM] | IC50 (PDE1A) [nM] | IC50 (PDE1C) [nM]
COc1ccc2c(N(C)C3CCOC3C)ncnc2c1F (single isomer, unassigned) [18 Stereoisomer 4] | 60 | 515 | 120
COc1ccc2c(N(C)C3(C)CCOC3C)ncnc2c1F (single isomer, unassigned) [19 Stereoisomer 1] | 32 | 229 | 86
COc1ccc2c(N(C)C3(C)CCOC3C)ncnc2c1F (single isomer, unassigned) [19 Stereoisomer 2] | 32 | 185 | 55
COc1ccc2c(N(C)C3(C)CCOC3C)ncnc2c1F (single isomer, unassigned) [19 Stereoisomer 3] | 420 | 2490 | 1200
COc1ccc2c(N(C)C3(C)CCOC3C)ncnc2c1F (single isomer, unassigned) [19 Stereoisomer 4] | 10 | 97 | 34
